# From ChEMBL document CHEMBL1147942, “Dual M3 antagonists-PDE4 inhibitors. Part 2: Synthesis and SAR of 3-substituted azetidinyl derivatives” (Bioorg Med Chem Lett, 2007)
# Activity calls are given as the source filed them. The rule behind the calls is not given here.
# Legend:
# Phosphodiesterase 4 [1] = target: T1, Phosphodiesterase 4 (Homo sapiens, UniProt P27815+Q08499+Q07343+Q08493); experiment: Inhibition of PDE4 in U937 cells; assay type: cell-based; conditions: u-937
# [2] = Dissociation constant, pKa of the compound; assay type: physicochemical
# [3] = target: Muscarinic acetylcholine receptor M3 (Homo sapiens, UniProt P20309); experiment: Displacement of [3H]N-methylscopolamine from human recombinant M3 muscarinic receptor expressed in CHO cell membrane; assay type: cell membranes
# [4] = Inhibition of fMLP-induced elastase release from human PMN cells; assay type: functional, cell-based
# Cavia porcellus = species on record: Cavia porcellus; conditions: Trachea
# Description: Activity at PDE4 in guinea pig assessed as effect on LTD4-induced trachea contraction
# Phosphodiesterase 4 [5] = target: T1, Phosphodiesterase 4; experiment: Inhibition of PDE4 in U937 cells at high-affinity rolipram binding state; assay type: cell-based; conditions: u-937
# Mus musculus [6] = species on record: Mus musculus; experiment: Inhibition of BALF cells in BALB/c mouse at 10 mg/ml, nose-only aerosol for 15 mins; assay type: functional, organism-based
# Mus musculus [7] = species on record: Mus musculus; experiment: Inhibition of mKC cells in BALB/c mouse at 10 mg/ml, nose-only aerosol for 15 mins; assay type: functional, organism-based
# Mus musculus [8] = species on record: Mus musculus; experiment: Inhibition of PMN cells in BALB/c mouse at 10 mg/ml, nose-only aerosol for 15 mins; assay type: functional, organism-based
# Phosphodiesterase 4 [9] = target: T1, Phosphodiesterase 4; experiment: Inhibition of PDE4 in U937 cells at 10 uM; assay type: cell-based; conditions: U-937
# [10] = target: Muscarinic acetylcholine receptor M3 (Cavia porcellus, UniProt Q8VH26); experiment: Activity at M3 muscarinic receptor in guinea pig assessed as effect on carbachol-induced trachea contraction
# Muscarinic acetylcholine receptor M3 (Cavia porcellus, UniProt Q8VH26), sequence (Q8VH26 whole entry): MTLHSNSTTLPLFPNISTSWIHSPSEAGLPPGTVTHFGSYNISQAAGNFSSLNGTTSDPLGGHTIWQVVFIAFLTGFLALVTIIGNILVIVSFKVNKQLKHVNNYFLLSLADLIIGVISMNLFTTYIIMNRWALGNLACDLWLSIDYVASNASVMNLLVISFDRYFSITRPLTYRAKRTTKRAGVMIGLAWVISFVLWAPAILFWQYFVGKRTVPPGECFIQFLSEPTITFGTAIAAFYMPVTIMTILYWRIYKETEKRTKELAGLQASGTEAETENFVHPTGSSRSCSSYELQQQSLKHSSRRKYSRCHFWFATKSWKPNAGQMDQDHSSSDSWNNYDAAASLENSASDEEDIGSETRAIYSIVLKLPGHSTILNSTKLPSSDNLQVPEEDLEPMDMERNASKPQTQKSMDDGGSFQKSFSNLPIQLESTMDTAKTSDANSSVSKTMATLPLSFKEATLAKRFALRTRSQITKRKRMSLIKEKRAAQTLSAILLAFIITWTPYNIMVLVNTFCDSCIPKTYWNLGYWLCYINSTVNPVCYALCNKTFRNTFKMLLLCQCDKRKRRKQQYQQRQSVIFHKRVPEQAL
# Muscarinic acetylcholine receptor M3 (Homo sapiens, UniProt P20309), sequence (P20309 whole entry): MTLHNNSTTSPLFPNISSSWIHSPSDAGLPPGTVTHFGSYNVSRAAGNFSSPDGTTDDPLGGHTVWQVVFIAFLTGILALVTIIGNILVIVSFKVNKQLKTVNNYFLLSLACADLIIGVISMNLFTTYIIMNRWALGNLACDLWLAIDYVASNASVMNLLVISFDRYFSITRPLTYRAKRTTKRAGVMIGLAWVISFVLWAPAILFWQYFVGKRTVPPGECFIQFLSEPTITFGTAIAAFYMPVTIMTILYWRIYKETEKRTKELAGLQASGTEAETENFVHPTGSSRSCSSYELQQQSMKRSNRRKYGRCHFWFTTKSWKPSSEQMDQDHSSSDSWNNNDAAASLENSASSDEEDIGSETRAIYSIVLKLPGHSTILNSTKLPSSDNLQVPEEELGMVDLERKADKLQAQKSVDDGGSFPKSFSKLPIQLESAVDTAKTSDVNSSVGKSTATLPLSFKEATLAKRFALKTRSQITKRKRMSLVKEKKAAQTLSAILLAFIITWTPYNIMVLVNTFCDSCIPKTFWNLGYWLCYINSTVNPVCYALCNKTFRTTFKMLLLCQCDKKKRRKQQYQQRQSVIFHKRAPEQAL
IC50 (Phosphodiesterase 4 [1]) [nM],pKa [2],Ki [3] [nM],SMILES,further results
79,6.6,200,Cc1c(N2CCCCCC2)nc(C2CC2)nc1N1CC(F)C1,IC50 [4]: 380 nM; Log IC50 (Phosphodiesterase 4 [1]): -7.3; pD2 (Cavia porcellus): 7.4; Log Ki (Phosphodiesterase 4 [5]): -6
2000,7.5,13,CC1CN(c2cc(N3CCCCCC3)nc(C3CC3)n2)C1,–
200,6.9,501,FC1CN(c2cc(N3CCCCCC3)nc(C3CC3)n2)C1,–
630,7,158,Cc1c(N2CCCCCC2)nc(C2CC2)nc1N1CC(O)C1,–
1000,6.4,794,Cc1c(N2CCCCCC2)nc(C2CC2)nc1N1CC(C#N)C1,–
790,7.4,79,c1c(N2CCCCCC2)nc(C2CC2)nc1N1CCC1,–
790,8,20,Cc1c(N2CCCCCC2)nc(C2CC2)nc1N1CC(C)C1,–

# Second part, the compound before the results:
SMILES,IC50 (Phosphodiesterase 4 [1]) [nM],pKa [2],Ki [3] [nM],further results
COC1CN(c2nc(C3CC3)nc(N3CCCCCC3)c2C)C1,4000,6.8,40,–
Cc1c(NC2CC2)nc(C2CC2)nc1N1CCCCCC1,–,–,–,Activity (Mus musculus [6]): Dose-dependent effect; Activity (Mus musculus [7]): Dose-dependent effect; pD2 (Cavia porcellus): 6.1; Activity (Mus musculus [8]): Dose-dependent effect
Cc1c(N2CCCCCC2)nc(C2CC2)nc1N1CC(C)(C)C1,5000,7,32,–
Cc1c(N2CCCCCC2)nc(C2CC2)nc1N1CC(=O)C1,500,6.4,631,–
Cc1c(N2CCCCCC2)nc(C2CC2)nc1N1CCCCC1,–,–,79,Activity (Phosphodiesterase 4 [9]): inactive
Cc1c(N2CCCCCC2)nc(C2CC2)nc1N1CCCC1,3200,–,1.3,–
Cc1c(N2CCCCCC2)nc(C2CC2)nc1N1CCCCCC1,–,–,40,Activity (Phosphodiesterase 4 [9]): inactive
Cc1c(N2CCCCCC2)nc(C2CC2)nc1N1CCC1,320,7.1,16,IC50 [4]: 190 nM; Log IC50 (Phosphodiesterase 4 [1]): -6.6; Kb [10]: 1000 nM; Log Ki (Phosphodiesterase 4 [5]): -5.3
